For one compound, inhibition and Activity results are on record in ChEMBL document CHEMBL4619759, “A DNA Repair Inhibitor Isolated from an Ecuadorian Fungal Endophyte Exhibits Synthetic Lethality in PTEN-Deficient Glioblastoma” (2020).

Test [1] relates to U-251. Briefly: Inhibition of DSB repair in PTEN-deficient 5 Gy IR-induced human U251 cells assessed as increase in comet tail moment at 12.5 ug/ml pretreated followed by irradiation with 5 Gy IR by neutral comet assay. Format: functional, cell-based.
The subject of test [2] is U-251. Briefly: Induction of DNA damage in PTEN-deficient human U251 cells assessed as accumulation of gammaH2AX positive cells at G1 phase at 12.5 ug/ml in presence of 5 Gy IR irradiation measured after 4 to 24 hrs by PI staining based flow cytometric analysis. Format: functional, cell-based. For orientation: In flow cytometry, cells or beads pass a laser one at a time.

Test [3] relates to U-251. The experiment in a line: Induction of DNA damage in PTEN-deficient human U251 cells assessed as accumulation of gammaH2AX positive cells at G2/M phase at 6.25 to 12.5 ug/ml measured after 4 to 24 hrs by PI staining based flow cytometric analysis. The class given is functional, cell-based.
Test [4] concerns U-251. The experiment in a line: Induction of DNA damage in PTEN-proficient human U251 cells assessed as accumulation of gammaH2AX positive cells at G1 phase at 6.25 to 12.5 ug/ml measured after 4 to 24 hrs by PI staining based flow cytometric analysis. The class given is functional, cell-based.
For test [5], the system named is U-251. The experiment in a line: Induction of DNA damage in PTEN-deficient human U251 cells assessed as accumulation of gammaH2AX positive cells at G1 phase at 6.25 to 12.5 ug/ml measured after 4 to 24 hrs by PI staining based flow cytometric analysis. Format: functional, cell-based.
Test [6] deals with U-251. The experiment in a line: Induction of DNA damage in PTEN-deficient human U251 cells assessed as gammaH2AX foci formation at 12.5 ug/ml in presence of 5 Gy IR irradiation measured after 4 to 24 hrs by PI staining based flow cytometric analysis. Format: functional, cell-based.
Test [7] concerns U-251. Briefly: Induction of cell cycle arrest in PTEN-proficient human U251 cells assessed as accumulation at G2/M phase at 6.25 to 12.5 ug/ml incubated for 4 hrs followed by irradiation with 5 Gy IR by PI staining based flow cytometric analysis. Format: functional.
Test [8] deals with U-251. The experiment in a line: Induction of DNA damage in PTEN-deficient human U251 cells assessed as gammaH2AX accumulation at 6.25 to 12.5 ug/ml after 4 to 24 hrs by PI staining based flow cytometric analysis. The class given is functional, cell-based.
For test [9], the system named is U-251. Briefly: Inhibition of DSB repair in PTEN-deficient human U251 cells at 12.5 ug/ml by neutral comet assay. The class given is functional, cell-based.
Test [10] relates to U-251. Briefly: Induction of cell cycle arrest in PTEN-deficient human U251 cells assessed as accumulation at G1 phase at 6.25 to 12.5 ug/ml after 4 to 24 hrs by PI staining based flow cytometric analysis. Format: functional.
Test [11] concerns U-251. The experiment in a line: Induction of DNA damage in PTEN-deficient human U251 cells assessed as accumulation of gammaH2AX positive cells at S phase at 6.25 to 12.5 ug/ml measured after 4 to 24 hrs by PI staining based flow cytometric analysis. Format: functional, cell-based.
Test [12] concerns U-251. Briefly: Induction of DNA damage in PTEN-proficient human U251 cells assessed as accumulation of gammaH2AX positive cells at S phase at 6.25 to 12.5 ug/ml measured after 4 to 24 hrs by PI staining based flow cytometric analysis. Format: functional, cell-based.
A short description of test [13]: Inhibition of DSB repair in PTEN-deficient human U2OS EJ-DR cells assessed as reduction in mutagenic non-homologous end joining activity at 12.5 ug/ml incubated for 24 hrs in presence of DSB inducer by flow cytometric analysis relative to control. The class given is functional.
In test [14] the test system is U-251. The experiment in a line: Induction of cell cycle arrest in PTEN-deficient human U251 cells assessed as accumulation at G2/M phase at 6.25 to 12.5 ug/ml incubated for 4 hrs followed by irradiation with 5 Gy IR by PI staining based flow cytometric analysis. Format: functional.
Test [15] in a line: Inhibition of DSB repair in PTEN-deficient human U2OS EJ-DR cells assessed as reduction in homologous recombination activity at 12.5 ug/ml incubated for 24 hrs in presence of DSB inducer by flow cytometric analysis relative to control. The class given is functional.
Test [16] relates to U-251. The experiment in a line: Radiosensitizer activity in PTEN-deficient human U251 cells assessed as reduction in cell survival at 6.25 to 12.5 ug/ml in presence of 5 Gy IR irradiation by CellTiter-Glo cell viability assay. Format: functional, cell-based. (In general: Cellular ATP, detected with luciferase, serves as a proxy for viable cell number.)
Test [17] has as its system U-251. The experiment in a line: Induction of DNA damage in PTEN-proficient human U251 cells assessed as accumulation of gammaH2AX positive cells at G2/M phase at 6.25 to 12.5 ug/ml measured after 4 to 24 hrs by PI staining based flow cytometric analysis. Format: functional, cell-based.
In test [18] the test system is U-251. Briefly: Selective cytotoxicity against PTEN-deficient human U251 cells at 12.5 ug/ml after 48 hrs by CellTiter-Glo luminescent cell viability assay. Format: functional, cell-based.

Molecules are shown by their SMILES. Activity calls are given as the source filed them. No cut-off for these calls is given here.

Regarding `O=C1Nc2ccccc2-c2ccnc3ccc(O)c1c23`, the inhibition entry in the test on U-251 [1] and in the test with U-251 [9] was “Active” each time. For the same compound, the result in the test with U-251 [2], in the test on U-251 [6], in the test on U-251 [7], in the test with U-251 [8], in the test with U-251 [10] and in the test with U-251 [14] was Active. Further, the outcome in the test with U-251 [16] and in the test with U-251 [18] was Active. The result in the test on U-251 [3], with U-251 [4], with U-251 [5], in the test on U-251 [11], in the test on U-251 [12] and in the test with U-251 [17] was inactive. For the same compound, the results for the inhibition at 12.5 µg/mL in [13] and in [15] were 48% and 46%, respectively.

For orientation: inhibition means the percentage by which the read-out fell short of the control.
